Measurements published in US5034531A, “Fused polycyclic pyranyl compounds as antiviral agents” (priority 1988, dated 1991).
Values after ≈ are worked out from the molar mass of the structure shown.

The compounds below were run on HSV-2 (assay: Transient expression assay: inhibition of HSV replication (HSV-2-induced β-galactosidase expression from HSV-1 TK promoter/Lac Z plasmid pON 245 in HeLa cells)). Conditions: Human alphaherpesvirus 2, HeLa, 24 h, read-out: IC50-values for Inhibition of HSV replication.
Type: cell-based, Herpes simplex virus HSV-2 (ATCC VR-540)
Description: The following example illustrates the activities of various compounds for inhibiting beta-galactosidase.
Transient Expression Assay
Herpes simplex virus (HSV) is grown and titered on Vero cells, a standard cell line.
Plasmid pON 245 (constructed by Ed Mocarski at Stanford University, Stanford California) is used for the assay. This plasmid contains the HSV-1 thymidine kinase (TK) promoter located immediately 5' of the E. coli Lac Z gene and controls transcription from the bacterial gene in transient assays. Plasmids (22 μg/10^6 cells) are introduced into standard HeLa cells by DEAE-dextran-mediated transfection. DEAE-dextran is an electropositivity charged polymer which is a diethylamino ethyl ether of dextran. Forty-eight hours after transfection, cells are infected with HSV-2 (American Type Collection Culture (ATCC) VR-540) (multiplicity of infection=5 plaque-forming units per cell). Twenty-four hours after viral infection, levels of β-galactosidase in cells are assayed by incubation in the presence of 4-methylumbelliferyl-β-D-galactoside for 2 hours on a microfluorimeter after addition of 0.1 M glycine buffer, pH=10.3. An inhibitory concentration (IC50 value), for example, of 8 μg/ml indicates the amount of compound which reduces maximal β-galactosidase expression by 50 percent. The inhibition of expression of β-galactosidase activity indicates the inhibition of viral replication at events prior to or including […] kinase (TK) expression by HSV-2.
`O=c1c2c(oc3ncccc13)-c1ccccc1CCC2` was tested, and the IC50 was > 25 µg/mL.
For `O=c1c2c(oc3ncccc13)CCc1ccccc1-2`, the IC50 was 16 µg/mL (≈ 64.2 µM).
`O=c1c2c(oc3ccccc13)-c1ccccc1CCC2` gave an IC50 of 8 µg/mL (≈ 30.5 µM).
`O=c1c(-c2ccccc2)coc2ncc(Br)cc12` showed an IC50 of 10 µg/mL (≈ 33.1 µM).
